Reference: US4454156A, “4-Amino-hepta-5,6-dienoic acid” (Merrell-Toraude et Compagnie, priority 1982, dated 1984)
Where “and” joins values, the source holds several entries; their conditions need not be identical. Equal values may be shown once.

Columns and labels:
[1] = test system: GABA-T; test: GABA-T activity in mouse brain after seven daily i.p. doses; format: in vivo, mice (male albino CD1); details: 24 h after last dose
Procedure: (§1) Male albino CD1 mice each weighing approximately 34 g at commencement of the test are given an i.p. injection of the test compound in aqueous solution daily for seven consecutive days. Half of the animals are killed by decapitation 24 hours after the last dose fo the test compound. The other half of the animals are observed for up to 12 days for toxicity (as indicated by weight loss and deaths). Control animals receive an injecion of the vehicle only.
(§2) The brains are removed from the dead mice and are divided into two portions by sagittal section. One half is used for the measurement of GABA-T activity while the other is used for measuring GABA content. The GABA-T activity is measured using known methods as described by M. Jung et al., J.Neurochem., 28, 717 (1977) and 29, 797 (1977). GABA content is measured by perchloric acid or trichloroacetic acid extracts using an amino acid analyzer equiped with a fluorescence detector.

[2] = Toxicity (lethality) after i.p. or oral administration to mice
Procedure: A. The toxicity of (S)-allenyl GABA and (R,S)-allenyl GABA was determined after i.p. administration to male mice. The mice were observed up to eight days after injection.
B. The toxicity of (S)-allenyl GABA ("S") and (R,S)-allenyl GABA ("R,S") was determined as in Part A after both oral and i.p. administration.

[3] = test system: GABA levels in the brain; test: GABA level in mouse brain after a single i.p. or oral dose; format: in vivo, mice; details: for GABA Level (calculated as percent of control): 6 h
Procedure: […] […] The other half of the animals are observed for up to 12 days for toxicity (as indicated by weight loss and deaths). Control animals receive an injecion of the vehicle only.
as §2, with “The GABA-T activity is measured using known methods as described by M. Jung et al., J.Neurochem., 28, 717 (1977) and 29, 797 (1977).” left out
(§3) B. The procedure of Part A is repeated using both oral and i.p. doses of (R,S)-allenyl GABA.

[4] = test system: seizures and death induced by mercaptopropionic acid; test: Protection of mice against seizures and death induced by mercaptopropionic acid; format: in vivo; details: for Number of Animals having seizures / Number of Dead animals: 6 h before mercaptopropionic acid 53 mg/kg i.p.
Source text: Mice (3.5) were given a single i.p. injection of the test compound. […] The results of the testing are set forth below

[5] = test system: GABA levels in the brain; test: GABA content of mouse brain after seven daily i.p. doses; format: in vivo, mice (male albino CD1); details: 24 h after last dose
Procedure: as §1, §2

[6] = test system: GABA-T; test: GABA-T activity in mouse brain after a single i.p. or oral dose; format: in vivo, mice; details: for GABA-T Activity (calculated as percent inhibition): 6 h
Procedure: as §1, §2
A. The procedure of Example 3 is repeated using a single i.p. dose of the test compound and killing the mice 6 hours after the i.p. injection.
as §3

[7] = test system: brain levels of GABA; details: known compounds, literature; cited from earlier work
[8] = test system: GABA-T; details: known compounds, literature; cited from earlier work
[9] = 100 mg/kg i.p. daily for 7 days
[10] = i.p., 0.77 mM/kg (135.9 mg/kg), single dose, Table 3
[11] = i.p., 1.94 mM/kg (342.4 mg/kg), single dose, Table 3
[12] = i.p., 3.87 mM/kg (683.1 mg/kg), single dose, Table 3
[13] = oral, 0.77 mM/kg (135.9 mg/kg), single dose, Table 3
[14] = oral, 1.94 mM/kg (342.4 mg/kg), single dose, Table 3
[15] = oral, 3.87 mM/kg (683.1 mg/kg), single dose, Table 3
[16] = single i.p. dose 1.55 mM/kg (273.5 mg/kg), Table 2
[17] = single i.p. dose 3.10 mM/kg (547.2 mg/kg), Table 2
[18] = single i.p. dose 6.2 mM/kg (1094.3 mg/kg), Table 2
[19] = mercaptopropionic acid model, mice

C=C=CC(N)CCC(=O)O (racemic) [(R,S)-allenyl GABA, (R,S)-4-amino-hepta-5,6-dienoic acid]
GABA-T Activity (calculated as percent inhibition) ([1]; 50 mg/kg i.p. daily for 7 days): 55 percent inhibition | GABA-T Activity (calculated as percent inhibition) [1, 9]: 74 percent inhibition | selectivity ratio ([2]; mouse, in vivo, ip): 4 to 5 | No. of dead animals ([2]; mouse, in vivo, ip, 500 mg/kg): 0/5 | No. of dead animals Day 4 ([2]; mouse, in vivo, ip, 500 mg/kg): 0/5 | No. of dead animals ([2]; mouse, in vivo, ip, 750 mg/kg): 3/5 | No. of dead animals Day 4 ([2]; mouse, in vivo, ip, 750 mg/kg): 3/5 | No. of dead animals ([2]; mouse, in vivo, ip, 1000 mg/kg): 2/5 and 4/5 and 5/5 | No. of dead animals Day 4 ([2]; mouse, in vivo, ip, 1000 mg/kg): 5/5 | No. of dead animals ([2]; mouse, in vivo, ip, 1500 mg/kg): 5/5 | No. of dead animals Day 4 ([2]; mouse, in vivo, ip, 1500 mg/kg): 5/5 | No. of dead animals Day 4 ([2]; mouse, in vivo, po, 500 mg/kg): 0/5 | No. of dead animals Day 4 ([2]; mouse, in vivo, po, 750 mg/kg): 0/5 | No. of dead animals Day 4 ([2]; mouse, in vivo, po, 1000 mg/kg): 0/5 | No. of dead animals Day 4 ([2]; mouse, in vivo, po, 1500 mg/kg): 0/5 | toxicity by oral administration ([2]; oral): did not show toxicity by the oral route up to a dose of 1500 mg/kg | elevation of GABA levels in the CNS ([3]; administered orally or parenterally): can elevate GABA levels significantly in the CNS | GABA Level (calculated as percent of control) [3, 10]: 310% of control | GABA Level (calculated as percent of control) [3, 11]: 490% of control | GABA Level (calculated as percent of control) [3, 12]: 600% of control | effectiveness by oral versus i.p. route ([3]; oral vs i.p., Table 3): equally effective when given by the oral and i.p. routes of administration | GABA Level (calculated as percent of control) [3, 13]: 330% of control | GABA Level (calculated as percent of control) [3, 14]: 434% of control | GABA Level (calculated as percent of control) [3, 15]: 530% of control | GABA Level (calculated as percent of control) [3, 16]: 470% of control | GABA Level (calculated as percent of control) [3, 17]: 530% of control | GABA Level (calculated as percent of control) [3, 18]: 770% of control | Number of Animals having seizures ([4]; 0.39 mMole/kg i.p.): 5/5 | Number of Dead animals ([4]; 0.39 mMole/kg i.p.): 3/5 | Number of Animals having seizures ([4]; 0.77 mMole/kg i.p.): 5/5 | Number of Dead animals ([4]; 0.77 mMole/kg i.p.): 2/5 | Number of Animals having seizures ([4]; 1.9 mMole/kg i.p.): 3/5 | Number of Dead animals ([4]; 1.9 mMole/kg i.p.): 0/5 | Number of Animals having seizures ([4]; 3.9 mMole/kg i.p.): 3/5 | Number of Dead animals ([4]; 3.9 mMole/kg i.p.): 0/5 | effect on number of dead animals [4, 19]: significantly reduces the number of dead animals | protection against seizures [4, 19]: does not protect totally against seizures | GABA Level (calculated as percent of control) ([5]; 50 mg/kg i.p. daily for 7 days): 130% of control | GABA Level (calculated as percent of control) [5, 9]: 180% of control | GABA-T Activity (calculated as percent inhibition) [6, 10]: 64 percent inhibition | GABA-T Activity (calculated as percent inhibition) [6, 11]: 84 percent inhibition | GABA-T Activity (calculated as percent inhibition) [6, 12]: 88 percent inhibition | irreversible inhibition of GABA-T in vivo ([6]; in vivo): produce irreversible inhibition of GABA-T | GABA-T Activity (calculated as percent inhibition) [6, 13]: 69 percent inhibition | GABA-T Activity (calculated as percent inhibition) [6, 14]: 81 percent inhibition | GABA-T Activity (calculated as percent inhibition) [6, 15]: 86 percent inhibition | GABA-T Activity (calculated as percent inhibition) [6, 16]: 76 percent inhibition | GABA-T Activity (calculated as percent inhibition) [6, 17]: 89 percent inhibition | GABA-T Activity (calculated as percent inhibition) [6, 18]: 96 percent inhibition

C#CC(N)CCCN (centres unmarked) [1-acetylene-1,4-butanediamine]
elevation of brain levels of GABA [7]: elevate brain levels of GABA | irreversible inhibition of GABA-T [8]: irreversible inhibitors of GABA-T

C=CC(N)CCC(=O)O (centres unmarked) [4-aminohex-5-enoic acid ("vinyl GABA"), 4-aminohex-5-enoic acid]
elevation of brain levels of GABA [7]: elevate brain levels of GABA | irreversible inhibition of GABA-T [8]: irreversible inhibitors of GABA-T
